Laboratory results as given in PubChem BioAssay AID1963862 (Molecular Pharmacology Branch, DTP, NCI, 2024).
pIC50: −log10 of the molar value.

System: KRAS patient-derived spheroids with HUVEC/MSC, viability
Assay: Anticancer human tumor 941728-121-R-J1-PDC patient-derived lung adenocarcinoma cell line growth inhibition [KRAS2]
Settings: for pIC50: curve of first compound; for viability, T/C: stronger effect = lower value
Description: Multicellular complex tumor spheroid response to RAS pathway inhibitors in combination with a targeted agents in patient-derived cell lines with oncogenic KRAS variants from multiple cancer types
A high-throughput screen of multi-cell type tumor spheroids was designed to identify active combinations of targeted small molecules and KRAS pathway inhibitors. Complex spheroids include a stromal component modeled by human endothelial cells (HUVEC) and fibroblasts modeled by human mesenchymal stem cells (MSCs). The concentration ranges selected for each drug and investigational agent were based upon clinically achievable concentrations if the clinical Cmax of the agent was known.
Compounds. The drugs and investigational agents: BI-3406 (NSC825286), BAY-293 (NSC824723), batoprotafib (TNO155; NSC825523), sotorasib (AMG 510; NSC818433), MRTX1257 (NSC819558), elimusertib (BAY 1895344; NSC800525), molibresib (GSK525762; NSC774829), temuterkib (LY3214996; NSC803410), venetoclax (NSC766270), alisertib (NSC759677), olaparib (NSC753686), talazoparib (NSC767125), erdafitinib (NSC781556), ipatasertib (NSC767898), cabozantinib (NSC761068), nintedanib (NSC756659), abemaciclib (NSC768073), docetaxel (NSC628503), trametinib (NSC758246), and sapanisertib (NSC764658) were obtained from the National Cancer Institute (NCI) Developmental Therapeutics Program Chemical Repository. The FDA-approved anticancer drug set is available from the Developmental Therapeutics Program. […] The stock solutions were prepared in dimethyl sulfoxide (DMSO, Sigma-Aldrich, St. Louis, MO, cat. D2650) at 800-fold the tested concentration and stored at -70 degrees C prior to their use. All drugs and investigational agents were tested over a range starting from a high concentration at or near the clinical Cmax and decreasing in half-log increments. If the clinical Cmax for an agent had not been determined, the highest concentration tested was 10 microM.
Cell Culture. All cells were maintained in an incubator at 37 degrees C and 5% CO2 with 95% humidity. The PDC lines were cultured according to standard operating procedures established by the NCI PDMR (https://pdmr.cancer.gov/sops/default.htm). Briefly, all PDCs were thawed and cultured in Matrigel-coated flasks prepared with a working solution of 1X Ham's F-12 nutrient mix, without supplementation (Invitrogen, Waltham, MA, cat. 11765054), 100 U/mL penicillin-streptomycin (Invitrogen, cat. 15140122), and 2.5% Matrigel (Corning Inc., Corning, NY, cat. 354248) for the first three passages. All PDCs were cultured in complete DMEM/F-12 media containing advanced DMEM/F-12 (Invitrogen, cat. 12634028), 4.9% defined fetal bovine serum, heat inactivated (HyClone Laboratories Inc., Logan, UT, cat. SH30070.03HI), 389 ng/mL hydrocortisone (Sigma-Aldrich, cat. H4001), 9.7 ng/mL human EGF recombinant protein (Invitrogen, cat. PHG0313), 23.4 microg/mL adenine (Sigma-Aldrich, cat. A2786), 97.3 U/mL penicillin-streptomycin (Invitrogen, cat. 15140122), 1.9 mM L-glutamine (Invitrogen, cat. 25030081), and 9.7 microM Y-27632 dihydrochloride (Tocris Bioscience, Bristol, United Kingdom, cat. 1254). The PDCs were cultured in complete DMEM/F12 media without 9.7 microM Y-27632 dihydrochloride for at least two passages prior to the screen. The established cell line HOP-62 was cultured in RPMI 1640 medium, HEPES (Invitrogen, cat. 22400105) with 10% defined fetal bovine serum (HyClone Laboratories Inc., cat. SH30070.03) and 2 mM L-glutamine (Invitrogen, cat. 25030081). The pooled donor HUVEC were cultured in endothelial cell growth medium 2 (PromoCell, Heidelberg, Germany, cat. C-22011) and the hMSC were cultured in mesenchymal stem cell growth medium 2 (PromoCell, cat. C-28009). For all experiments, HUVEC and hMSC were used at passages </=5, while the malignant cell lines were used at passages </=15. […]

[1] = second compound 0.1 µM, first compound 0.000316 µM
[2] = second compound 0.1 µM, first compound 0.001 µM
[3] = second compound 0.1 µM, first compound 0.00316 µM
[4] = second compound 0.1 µM, first compound 0.01 µM
[5] = second compound 0.1 µM, first compound 0.0316 µM
[6] = second compound 0.1 µM, first compound 0.1 µM
[7] = second compound 0.316 µM, first compound 0.000316 µM
[8] = second compound 0.316 µM, first compound 0.001 µM
[9] = second compound 0.316 µM, first compound 0.00316 µM
[10] = second compound 0.316 µM, first compound 0.01 µM
[11] = second compound 0.316 µM, first compound 0.0316 µM
[12] = second compound 0.316 µM, first compound 0.1 µM
[13] = second compound 1 µM, first compound 0.000316 µM
[14] = second compound 1 µM, first compound 0.001 µM
[15] = second compound 1 µM, first compound 0.00316 µM
[16] = second compound 1 µM, first compound 0.01 µM
[17] = second compound 1 µM, first compound 0.0316 µM
[18] = second compound 1 µM, first compound 0.1 µM
[19] = second compound 3.16 µM, first compound 0.000316 µM
[20] = second compound 3.16 µM, first compound 0.001 µM
[21] = second compound 3.16 µM, first compound 0.00316 µM
[22] = second compound 3.16 µM, first compound 0.01 µM
[23] = second compound 3.16 µM, first compound 0.0316 µM
[24] = second compound 3.16 µM, first compound 0.1 µM
[25] = second compound 10 µM, first compound 0.000316 µM
[26] = second compound 10 µM, first compound 0.001 µM
[27] = second compound 10 µM, first compound 0.00316 µM
[28] = second compound 10 µM, first compound 0.01 µM
[29] = second compound 10 µM, first compound 0.0316 µM
[30] = second compound 10 µM, first compound 0.1 µM
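Also: spheroids exposed to agents for seven days before readout.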

Structure (SMILES)	pIC50 (second compound 0.1 µM)	pIC50 (second compound 0.316 µM)	pIC50 (second compound 1 µM)	pIC50 (second compound 3.16 µM)	pIC50 (second compound 10 µM)	viability, T/C [1] [%]	viability, T/C [2] [%]	viability, T/C [3] [%]	viability, T/C [4] [%]	viability, T/C [5] [%]	viability, T/C [6] [%]	viability, T/C [7] [%]	viability, T/C [8] [%]	viability, T/C [9] [%]	viability, T/C [10] [%]	viability, T/C [11] [%]	viability, T/C [12] [%]	viability, T/C [13] [%]	viability, T/C [14] [%]	viability, T/C [15] [%]	also measured
Cn1ncnc1[C@H]1c2n[nH]c(=O)c3cc(F)cc(c23)N[C@@H]1c1ccc(F)cc1 + CNCc1ccccc1-c1csc(C(C)Nc2nc(C)nc3cc(OC)c(OC)cc23)c1	8.19	> 9.50	> 9.50	> 9.50	> 9.50	52.8	70.3	47.4	44.4	44.3	37.2	35.8	30.6	27.9	29.3	26.3	27.4	14.4	15.7	15.4	viability, T/C [16]: 14.4%; viability, T/C [17]: 10.9%; viability, T/C [18]: 15.1%; viability, T/C [19]: 0.11%; viability, T/C [20]: 0.05%; viability, T/C [21]: 0.16%; viability, T/C [22]: 0.06%; viability, T/C [23]: 0.09%; viability, T/C [24]: 0.18%; viability, T/C [25]: 0.08%; viability, T/C [26]: 0.09%; viability, T/C [27]: 0.08%; viability, T/C [28]: 0.09%; viability, T/C [29]: 0.12%; viability, T/C [30]: 0.16%
Cn1ncnc1[C@H]1c2n[nH]c(=O)c3cc(F)cc(c23)N[C@@H]1c1ccc(F)cc1 + C=CC(=O)N1CCN(c2nc(=O)n(-c3c(C)ccnc3C(C)C)c3nc(-c4c(O)cccc4F)c(F)cc23)C(C)C1	> 9.50	> 9.50	> 9.50	> 9.50	> 9.50	14.7	15.4	13.9	13.6	13.5	13.9	17.4	14.9	15.3	14.8	14.1	14.1	16	15.5	17.6	viability, T/C [16]: 15.9%; viability, T/C [17]: 15.9%; viability, T/C [18]: 15.2%; viability, T/C [19]: 15.8%; viability, T/C [20]: 18.3%; viability, T/C [21]: 15.4%; viability, T/C [22]: 17.4%; viability, T/C [23]: 13.6%; viability, T/C [24]: 14.9%; viability, T/C [25]: 17.9%; viability, T/C [26]: 20.1%; viability, T/C [27]: 17.3%; viability, T/C [28]: 17.3%; viability, T/C [29]: 18.1%; viability, T/C [30]: 16.7%
